Reference: the Kinase Knowledgebase extract (Sharma et al. 2016)
“And” between values parts separate entries of the source, which are not always exact repeats. Identical values can stand only once.

Biological target: MAPK14 (UniProt Q16539)
Test: Inhibition of MAPK14 Kinase Activity

Sequence of MAPK14 (Q16539 whole entry, looked up): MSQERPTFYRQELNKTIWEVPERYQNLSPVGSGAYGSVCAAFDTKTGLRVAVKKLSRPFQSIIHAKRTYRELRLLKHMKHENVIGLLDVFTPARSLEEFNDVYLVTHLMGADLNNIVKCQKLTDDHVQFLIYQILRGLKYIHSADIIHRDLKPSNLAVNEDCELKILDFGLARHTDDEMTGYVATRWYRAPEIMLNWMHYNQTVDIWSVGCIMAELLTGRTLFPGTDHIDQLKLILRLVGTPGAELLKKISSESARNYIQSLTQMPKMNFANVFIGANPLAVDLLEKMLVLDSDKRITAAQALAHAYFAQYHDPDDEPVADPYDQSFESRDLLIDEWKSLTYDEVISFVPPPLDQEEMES

Compound	IC50
Fc1ccc(-c2nc(C3CCNCC3)[nH]c2-c2ccncc2)cc1	8 nM
c1ccc(-c2nc(-c3ccccc3)c(-c3ccncn3)[nH]2)cc1	707 nM
CNc1nccc(-c2[nH]c(-c3ccccc3)nc2-c2ccccc2)n1	120 nM
C[C@@H](Nc1nccc(-c2[nH]c(C3CCNCC3)nc2-c2cccc(C(F)(F)F)c2)n1)c1ccccc1	0.9 nM
Nc1nccc(-c2[nH]c(C3CCNCC3)nc2-c2cccc(C(F)(F)F)c2)n1	7 nM
Nc1nccc(-c2[nH]c(-c3ccccc3)nc2-c2ccccc2)n1	38 nM
CC(C)c1nc(-c2ccccc2)[nH]c1-c1ccncc1	2090 nM
Fc1ccc(-c2nc(C3CCCCC3)[nH]c2-c2ccncc2)cc1	70 nM
COc1ccc(CNc2nccc(-c3[nH]c(C4CCNCC4)nc3-c3cccc(C(F)(F)F)c3)n2)cc1	7 nM
COc1ccc(CNc2nccc(-c3[nH]c(-c4ccccc4)nc3-c3ccccc3)n2)cc1	38 nM
C[C@H](Nc1nccc(-c2[nH]c(C3CCNCC3)nc2-c2cccc(C(F)(F)F)c2)n1)c1ccccc1	0.7 nM and 0.1 nM
Fc1ccc(-c2nc[nH]c2-c2ccncc2)cc1	169 nM

Results, then the compound that gave them:

IC50	Compound
489 nM	Fc1cccc(-c2nc(-c3ccccc3)[nH]c2-c2ccncc2)c1
138 nM	Clc1cc(Cl)cc(-c2nc(-c3ccccc3)[nH]c2-c2ccncc2)c1
199 nM	FC(F)(F)c1ccc(-c2nc(-c3ccccc3)[nH]c2-c2ccncc2)cc1
977 nM	N#Cc1ccc(-c2nc(-c3ccccc3)[nH]c2-c2ccncc2)cc1
549 nM	COc1cccc(-c2nc(-c3ccccc3)[nH]c2-c2ccncc2)c1
1000 nM	c1ccc(-c2ccc(-c3nc(-c4ccccc4)[nH]c3-c3ccncc3)cc2)cc1
85 nM	FC(F)(F)c1cccc(-c2nc(-c3ccccc3)[nH]c2-c2ccncc2)c1
151 nM	Clc1ccccc1-c1nc(-c2ccccc2)[nH]c1-c1ccncc1
128 nM	Clc1cccc(-c2nc(-c3ccccc3)[nH]c2-c2ccncc2)c1
47 nM	Clc1ccc(-c2nc(-c3ccccc3)[nH]c2-c2ccncc2)cc1
141 nM	Oc1cccc(-c2nc(-c3ccccc3)[nH]c2-c2ccncc2)c1
181 nM	c1ccc(-c2nc(-c3ccccc3)c(-c3ccncc3)[nH]2)cc1
28 nM	Clc1ccc(-c2nc(-c3ccccc3)[nH]c2-c2ccncc2)cc1Cl
301 nM	COc1ccc(-c2nc(-c3ccccc3)[nH]c2-c2ccncc2)cc1
1410 nM	Oc1ccc(-c2nc(-c3ccccc3)[nH]c2-c2ccncc2)cc1
